pIC50: −log10 of the molar value.

Chain of USP7 (Q93009 208-1102): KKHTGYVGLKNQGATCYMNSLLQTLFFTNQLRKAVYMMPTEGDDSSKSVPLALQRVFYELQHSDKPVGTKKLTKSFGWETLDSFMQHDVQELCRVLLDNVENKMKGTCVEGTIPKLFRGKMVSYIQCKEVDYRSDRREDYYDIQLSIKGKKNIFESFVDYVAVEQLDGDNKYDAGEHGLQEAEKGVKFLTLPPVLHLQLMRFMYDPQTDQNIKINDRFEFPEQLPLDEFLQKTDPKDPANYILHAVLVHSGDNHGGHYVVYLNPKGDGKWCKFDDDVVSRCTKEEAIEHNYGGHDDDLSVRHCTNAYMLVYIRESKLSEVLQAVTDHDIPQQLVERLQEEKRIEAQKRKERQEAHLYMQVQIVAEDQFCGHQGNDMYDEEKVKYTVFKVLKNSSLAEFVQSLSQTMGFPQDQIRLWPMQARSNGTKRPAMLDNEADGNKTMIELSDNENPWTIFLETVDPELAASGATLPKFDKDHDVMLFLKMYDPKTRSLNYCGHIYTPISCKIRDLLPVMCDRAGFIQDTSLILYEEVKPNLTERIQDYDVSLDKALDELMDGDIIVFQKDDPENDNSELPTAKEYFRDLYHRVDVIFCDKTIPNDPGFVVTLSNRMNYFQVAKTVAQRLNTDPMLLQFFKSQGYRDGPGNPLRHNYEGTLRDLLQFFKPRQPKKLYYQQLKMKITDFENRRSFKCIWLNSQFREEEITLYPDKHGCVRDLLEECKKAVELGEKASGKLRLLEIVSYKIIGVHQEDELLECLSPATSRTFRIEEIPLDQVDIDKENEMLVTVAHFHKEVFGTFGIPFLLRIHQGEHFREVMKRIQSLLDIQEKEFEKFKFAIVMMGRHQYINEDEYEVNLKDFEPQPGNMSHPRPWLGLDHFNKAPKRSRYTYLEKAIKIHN

The target of the assay is USP7 (Homo sapiens (Human), UniProt Q93009). In words: USP7 Assay B (Ubitquin-Rhodamine110 Assay). The note with it: Ub-Rh110 substrate 25 nM. The format is biochemical. The method, then:
Stock compound solutions were stored at −20° C. as 10 mM in DMSO. […] Prestamped assay plates were allowed to come to room temperature on the day of the assay. For the screen, 100 nL of 2 mM was pre-dispensed for a final screening concentration of 10 μM (DMSO(fc)=0.5%). […] Unless otherwise indicated, all follow-up assays were run on triplecate plates. […] Pre-stamped with compounds were either not preincubated or preincubated with USP7 between 30 to 120 minutes prior to the addition of 10 μL of 2×Ub-Rh110 to compound plates. Plates were incubated stacked for either 23 or 45 minutes at room temperature before fluorescence was read on the Envision (Excitation at 485 nm and Emission at 535 nm; Perkin Elmer) or on the PheraSTAR (Excitation at 485 nm and Emission at 535 nm; BMG Labtech).
Data from USP7 Assays A and B were reported as percent inhibition (inh) compared with control wells based on the following equation: % inh=1−((FLU−AveLow)/(AveHigh−AveLow)) where FLU=measured Fluorescence (See Tables 2 and 3). AveLow=average Fluorescence of no enzyme control (n=16). AveHigh=average Fluorescence of DMSO control (n=16). IC50 values were determined by curve fitting of the standard 4 parameter logistic fitting algorithm included in the Activity Base software package: IDBS XE Designer Model205. Data is fitted using the Levenburg Marquardt algorithm.
A word on the pIC50: it is the IC50 on a negative log10 scale, so that one unit is a factor of ten. The low end stands for a large IC50, the high end for a small IC50. `N#Cc1ccc(-c2cccc(C(=O)N3CCC(O)(Cn4cnn5cccc5c4=O)CC3)c2)cc1` [Compound I-19, 3′-(4-hydroxy-4-((4-oxopyrrolo[2,1-f][1,2,4]triazin-3(4H)-yl)methyl)piperidine-1-carbonyl)-[1,1′-biphenyl]-4-carbonitrile] had a pIC50 of less than 5.00.

In the case of `Cc1ccc(NC(=O)Nc2cc3c(=O)n(CC4(O)CCN(C(=O)C5CC5)CC4)cnn3c2)c(C)c1` [Compound I-99, 1-(3-((1-(cyclopropanecarbonyl)-4-hydroxypiperidin-4-yl)methyl)-4-oxo-3,4-dihydropyrrolo[2,1-f][1,2,4]triazin-6-yl)-3-(2,4-dimethylphenyl)urea], the pIC50 is less than 5.00.

Take `O=C(COc1ccc(OC(F)(F)F)cc1)Nc1cc2c(=O)n(CC3(O)CCN(C(=O)C4CC4)CC3)cnn2c1` [Compound I-104, N-(3-((1-(cyclopropanecarbonyl)-4-hydroxypiperidin-4-yl)methyl)-4-oxo-3,4-dihydropyrrolo[2,1-f][1,2,4]triazin-6-yl)-2-(4-(trifluoromethoxy)phenoxy)acetamide]: the pIC50 is less than 5.00.

Turning to `O=C(NC1CCCC1)c1cccc(-c2cccc(C(=O)N3CCC(O)(Cn4cnn5cccc5c4=O)CC3)c2)c1` [Compound I-26, N-cyclopentyl-3′-(4-hydroxy-4-((4-oxopyrrolo[2,1-f][1,2,4]triazin-3(4H)-yl)methyl)piperidine-1-carbonyl)-[1,1′-biphenyl]-3-carboxamide], the pIC50 is less than 5.00.

In turn, `O=C(c1cccc(-c2ccc(C(F)(F)F)cc2)c1)N1CCC(O)(Cn2cnn3cccc3c2=O)CC1` [Compound I-15, 3-((4-hydroxy-1-(4′-(trifluoromethyl)-[1,1′-biphenyl]-3-carbonyl)piperidin-4-yl)methyl)pyrrolo[2,1-f][1,2,4]triazin-4(3H)-one] showed a pIC50 of less than 5.00.

`O=C(c1cccc(-c2ccsc2)c1)N1CCC(O)(Cn2cnn3cccc3c2=O)CC1` [Compound I-28, 3-((4-hydroxy-1-(3-(thiophen-3-yl)benzoyl)piperidin-4-yl)methyl)pyrrolo[2,1-f][1,2,4]triazin-4(3H)-one] gave a pIC50 of less than 5.00.

In turn, `O=C(c1ccc(-c2ccccc2)cc1)N1CCC(O)(Cn2cnn3cccc3c2=O)CC1` [Compound I-36, 3-((1-([1,1′-biphenyl]-4-carbonyl)-4-hydroxypiperidin-4-yl)methyl)pyrrolo[2,1-f][1,2,4]triazin-4(3H)-one] had a pIC50 of less than 5.00.

For `O=C(COc1ccc(Cl)c(Cl)c1)Nc1cc2c(=O)n(CC3(O)CCN(C(=O)C4CC4)CC3)cnn2c1` [Compound I-105, N-(3-((1-(cyclopropanecarbonyl)-4-hydroxypiperidin-4-yl)methyl)-4-oxo-3,4-dihydropyrrolo[2,1-f][1,2,4]triazin-6-yl)-2-(3,4-dichlorophenoxy)acetamide], the pIC50 is less than 5.00.

With `Cc1nnnn1Cc1ccc(C(=O)N2CCC(O)(Cn3cnn4cccc4c3=O)CC2)cc1` [Compound I-66, 3-((4-hydroxy-1-(4-((5-methyl-1H-tetrazol-1-yl)methyl)benzoyl)piperidin-4-yl)methyl)pyrrolo[2,1-f][1,2,4]triazin-4(3H)-one], the pIC50 was less than 5.00.

Take `Cc1ccc(C)c(C(=O)Nc2cc3c(=O)n(CC4(O)CCN(C(=O)C5CC5)CC4)cnn3c2)c1` [Compound I-109, N-(3-((1-(cyclopropanecarbonyl)-4-hydroxypiperidin-4-yl)methyl)-4-oxo-3,4-dihydropyrrolo[2,1-f][1,2,4]triazin-6-yl)-2,5-dimethylbenzamide]: the pIC50 was less than 5.00.

The compound `O=C(NCc1ccccc1F)Nc1cc2c(=O)n(CC3(O)CCN(C(=O)C4CC4)CC3)cnn2c1` [Compound I-94, 1-(3-((1-(cyclopropanecarbonyl)-4-hydroxypiperidin-4-yl)methyl)-4-oxo-3,4-dihydropyrrolo[2,1-f][1,2,4]triazin-6-yl)-3-(2-fluorobenzyl)urea] had a pIC50 of less than 5.00.

In turn, `O=C(c1ccccc1)N1CCC(O)(Cn2cnn3c(-c4ccccc4)ncc3c2=O)CC1` [Compound I-115, 3-((1-benzoyl-4-hydroxypiperidin-4-yl)methyl)-7-phenylimidazo[5,1-f][1,2,4]triazin-4(3H)-one] showed a pIC50 of 5.00 to 6.00.

`O=C(c1ccc(Cn2cnc3ccccc32)cc1)N1CCC(O)(Cn2cnn3cccc3c2=O)CC1` [Compound I-64, 3-((1-(4-((1H-benzo[d]imidazol-1-yl)methyl)benzoyl)-4-hydroxypiperidin-4-yl)methyl)pyrrolo[2,1-f][1,2,4]triazin-4(3H)-one] had a negative logarithm of the IC50 (pIC50) of 5.00 to 6.00.

With `C[C@@H](NC(=O)Nc1cc2c(=O)n(CC3(O)CCN(C(=O)C4CC4)CC3)cnn2c1)c1ccccc1` [Compound I-95, (R)-1-(3-((1-(cyclopropanecarbonyl)-4-hydroxypiperidin-4-yl)methyl)-4-oxo-3,4-dihydropyrrolo[2,1-f][1,2,4]triazin-6-yl)-3-(1-phenylethyl)urea], the pIC50 is less than 5.00.

Regarding `O=C(Nc1ccc(F)cc1)Nc1cc2c(=O)n(CC3(O)CCN(C(=O)C4CC4)CC3)cnn2c1` [Compound I-88, 1-(3-((1-(cyclopropanecarbonyl)-4-hydroxypiperidin-4-yl)methyl)-4-oxo-3,4-dihydropyrrolo[2,1-f][1,2,4]triazin-6-yl)-3-(4-fluorophenyl)urea], the negative-log IC50 (pIC50) was less than 5.00.

The compound `O=C(c1cccc(-c2ccc3c(c2)OCO3)c1)N1CCC(O)(Cn2cnn3cccc3c2=O)CC1` [Compound I-5, 3-((1-(3-(benzo[d][1,3]dioxol-5-yl)benzoyl)-4-hydroxypiperidin-4-yl)methyl)pyrrolo[2,1-f][1,2,4]triazin-4(3H)-one] had a pIC50 of 5.00 to 6.00.

The compound `CC(C)(C)C(Cc1ccccc1)C(=O)N1CCC(O)(Cn2cnn3cccc3c2=O)CC1` (stereo not drawn) [Compound I-53, 3-((1-(2-benzyl-3,3-dimethylbutanoyl)-4-hydroxypiperidin-4-yl)methyl)pyrrolo[2,1-f][1,2,4]triazin-4(3H)-one] gave a pIC50 of 5.00 to 6.00.

In the case of `O=C(C1CCN(c2nc3ccccc3o2)CC1)N1CCC(O)(Cn2cnn3cccc3c2=O)CC1` [Compound I-33, 3-((1-(1-(benzo[d]oxazol-2-yl)piperidine-4-carbonyl)-4-hydroxypiperidin-4-yl)methyl)pyrrolo[2,1-f][1,2,4]triazin-4(3H)-one], the pIC50 is less than 5.00.

On to `O=C(c1cccc(-c2cccc(F)c2)c1)N1CCC(O)(Cn2cnn3cccc3c2=O)CC1` [Compound I-30, 3-((1-(3′-fluoro-[1,1′-biphenyl]-3-carbonyl)-4-hydroxypiperidin-4-yl)methyl)pyrrolo[2,1-f][1,2,4]triazin-4(3H)-one], for which the negative-log IC50 (pIC50) was 5.00 to 6.00.

`Cc1cc2c(=O)n(CC3(O)CCN(C(=O)C(C)Cc4ccccc4)CC3)cnn2c1` (stereo not drawn) [Compound I-84, 3-((4-hydroxy-1-(2-methyl-3-phenylpropanoyl)piperidin-4-yl)methyl)-6-methylpyrrolo[2,1-f][1,2,4]triazin-4(3H)-one]: the pIC50 is 5.00 to 6.00.

Take `O=C(NCc1ccc(F)cc1)Nc1cc2c(=O)n(CC3(O)CCN(C(=O)C4CC4)CC3)cnn2c1` [Compound I-87, 1-(3-((1-(cyclopropanecarbonyl)-4-hydroxypiperidin-4-yl)methyl)-4-oxo-3,4-dihydropyrrolo[2,1-f][1,2,4]triazin-6-yl)-3-(4-fluorobenzyl)urea]: the pIC50 was less than 5.00.

For the origin of these results see US11795171B2, “Pyrrolotriazinones and imidazotriazinones as ubiquitin-specific protease 7 inhibitors” (Valo Health, Inc., priority 2014, dated 2023).
